From patent publication US11541132B2, “Radiolabeled compounds” (Hoffmann-La Roche Inc., priority 2017, dated 2023)

Columns and labels:
[1] = molecular target: T1, native Aβ aggregates in human AD brain tissue sections (Homo sapiens, UniProt P05067); assay: Aβ in vitro displacement assay (selectivity counterscreen, [3H]Example 3 autoradiography); format: binding; conditions: 1 μM compound; 3 nM [3H]Example 3; human AD brain sections; read-out: sel. counterscreen PCT_INHIB AD @ 1 μM (% displacement of [3H]Example 3)
T1 construct: native Aβ aggregates in human AD brain tissue samples; from tissue; host or cells: human AD brain tissue sections

[2] = molecular target: T2, native aSyn aggregates in A30P transgenic mouse brain sections (Homo sapiens, UniProt P37840, A30P); assay: aSyn in vitro displacement assay ([3H]Example-3 autoradiography); format: binding, mutant human aSyn gene); conditions: 1 μM compound; 3 nM [3H]Example-3; A30P transgenic mouse brain sections; read-out: PCT_INHIB A30P @ 1 μM (% displacement of [3H]Example-3)
T2 construct: from tissue; host or cells: brain sections (midbrain and pons as ROI) of A30P transgenic mice, line B6.D2-Tg(Thy1-SNCA*30P)31Pjk

T1 sequence (P05067 672-713 limits assumed): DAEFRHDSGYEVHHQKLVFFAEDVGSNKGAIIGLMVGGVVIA

inhibition at 1 µM [1] [%]	inhibition at 1 µM [2] [%]	SMILES
97	98	COc1ccc(C(=O)Nc2ccc(N3CCN(c4ccc(C#N)cc4F)CC3)cc2)cc1 [Example 145, N-(4-(4-(4-Cyano-2-fluorophenyl)piperazin-1-yl)phenyl)-4-methoxybenzamide]
95	96	COc1ccc(C(=O)Nc2ccc(N3CCN(c4ccc(C#N)cn4)CC3)cc2)cc1F [Example 160, N-(4-(4-(5-Cyanopyridin-2-yl)piperazin-1-yl)phenyl)-3-fluoro-4-methoxybenzamide]
92	89	COc1ccc(C(=O)Nc2ccc(N3CCN(c4ccc(C#N)cn4)CC3)cc2)cn1 [Example 171, N-(4-(4-(5-Cyanopyridin-2-yl)piperazin-1-yl)phenyl)-6-methoxynicotinamide]
92	89	COc1ccc(C(=O)Nc2ccc(N3CCN(c4ccc(C#N)cc4C)CC3)cc2)cc1 [Example 144, N-(4-(4-(4-Cyano-2-methylphenyl)piperazin-1-yl)phenyl)-4-methoxybenzamide]
89	82	O=C(Nc1ccc(N2CCN(c3cccnc3)CC2)cc1)c1ccc(O)cc1 [Example 138, 4-Hydroxy-N-[4-(4-pyridin-3-ylpiperazin-1-yl)phenyl]benzamide]

More lines, now with the values behind:

SMILES	inhibition at 1 µM [1] [%]	inhibition at 1 µM [2] [%]
COc1ccc(C(=O)Nc2ccc(N3CCN(c4ncncn4)CC3)cc2)cc1 [Example 55, 4-Methoxy-N-{4-[4-(1,3,5-triazin-2-yl)piperazin-1-yl]phenyl}benzamide]	95	81
COc1ccc(C(=O)Nc2ccc(N3CCN(c4ccc(S(C)(=O)=O)cc4)CC3)cc2)cc1 [Example 111, 4-Methoxy-N-[4-[4-(4-methylsulfonylphenyl)piperazin-1-yl]phenyl]benzamide]	92	94
CN1CCN(c2ccc(C(=O)Nc3cnc(N4CCN(c5ccccn5)CC4)cn3)cc2)CC1 [Example 87, 4-(4-Methylpiperazin-1-yl)-N-(5-(4-(pyridin-2-yl)piperazin-1-yl)pyrazin-2-yl)benzamide]	98	88
CN(C)c1ccc(C(=O)Nc2ccc(N3CCN(c4ccccn4)CC3)cc2)cc1 [Example 7, 4-(Dimethylamino)-N-(4-(4-(pyridin-2-yl)piperazin-1-yl)phenyl)benzamide]	108	90
O=C(Nc1cnc(N2CCN(c3ccccn3)CC2)nc1)c1ccccc1F [Example 61, 2-Fluoro-N-(2-(4-(pyridin-2-yl)piperazin-1-yl)pyrimidin-5-yl)benzamide]	93	86
CN(C)c1ccc(C(=O)Nc2ccc(N3CCN(c4ccccn4)CC3)cn2)cc1 [Example 46, 4-(Dimethylamino)-N-(5-(4-(pyridin-2-yl)piperazin-1-yl)pyridin-2-yl)benzamide]	96	94
Cc1cccc(C(=O)Nc2ccc(N3CCN(c4ccccn4)CC3)cn2)c1 [Example 54, 3-Methyl-N-(5-(4-(pyridin-2-yl)piperazin-1-yl)pyridin-2-yl)benzamide]	90	82
COc1ccc(C(=O)Nc2ccc(N3C[C@H]4CN(c5ccccn5)C[C@@H]4C3)cc2)cc1 [Example 132, 4-Methoxy-N-(4-((3aS,6aS)-5-(pyridin-2-yl)hexahydropyrrolo[3,4-c]pyrrol-2(1H)-yl)phenyl)benzamide]	20	82
Cc1ccc(C(=O)Nc2ccc(N3CCN(c4cccnc4)CC3)cc2)cc1 [Example 37, 4-Methyl-N-(4-(4-(pyridin-3-yl)piperazin-1-yl)phenyl)benzamide]	97	94
COc1ccc(C(=O)Nc2ccc(N3CCN(c4cccnc4)CC3)cc2)cc1 [Example 38, 4-Methoxy-N-(4-(4-(pyridin-3-yl)piperazin-1-yl)phenyl)benzamide]	93	96
